Values quoted from earlier work as cited in US20260140098A1, “METHOD FOR TREATING PLASMA SAMPLE CONTAINING (7aS,2'S)-2-OXO-CLOPIDOGREL AND METHOD FOR DETERMINING THE SAME” (CHENGDU SHIBEIKANG BIOMEDICAL TECHNOLOGY CO., LTD., priority 2021, published 2026).

Tests used:
[1] = molecular target: CYP1A2 (Homo sapiens, UniProt P05177); details: by CYP1A2; cited from earlier work
[2] = molecular target: CYP2B6 (Homo sapiens, UniProt P20813); details: by CYP2B6; cited from earlier work
[3] = molecular target: CYP2C19 (Homo sapiens, UniProt P33261); details: by CYP2C19; cited from earlier work
Chain of CYP2C19 (P33261 whole entry): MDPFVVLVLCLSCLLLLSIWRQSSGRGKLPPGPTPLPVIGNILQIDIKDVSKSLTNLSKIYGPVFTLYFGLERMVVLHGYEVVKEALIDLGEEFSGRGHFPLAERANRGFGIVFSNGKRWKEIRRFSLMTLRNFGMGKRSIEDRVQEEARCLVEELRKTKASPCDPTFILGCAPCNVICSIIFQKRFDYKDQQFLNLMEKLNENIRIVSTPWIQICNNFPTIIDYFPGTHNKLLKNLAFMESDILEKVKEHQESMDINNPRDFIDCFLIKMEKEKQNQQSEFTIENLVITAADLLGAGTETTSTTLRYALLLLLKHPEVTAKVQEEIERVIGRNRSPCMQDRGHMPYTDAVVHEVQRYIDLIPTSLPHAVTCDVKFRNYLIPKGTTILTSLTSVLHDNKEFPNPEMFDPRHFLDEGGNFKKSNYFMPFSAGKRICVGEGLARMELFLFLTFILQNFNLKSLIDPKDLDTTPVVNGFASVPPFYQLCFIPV

Chain of CYP1A2 (P05177 whole entry): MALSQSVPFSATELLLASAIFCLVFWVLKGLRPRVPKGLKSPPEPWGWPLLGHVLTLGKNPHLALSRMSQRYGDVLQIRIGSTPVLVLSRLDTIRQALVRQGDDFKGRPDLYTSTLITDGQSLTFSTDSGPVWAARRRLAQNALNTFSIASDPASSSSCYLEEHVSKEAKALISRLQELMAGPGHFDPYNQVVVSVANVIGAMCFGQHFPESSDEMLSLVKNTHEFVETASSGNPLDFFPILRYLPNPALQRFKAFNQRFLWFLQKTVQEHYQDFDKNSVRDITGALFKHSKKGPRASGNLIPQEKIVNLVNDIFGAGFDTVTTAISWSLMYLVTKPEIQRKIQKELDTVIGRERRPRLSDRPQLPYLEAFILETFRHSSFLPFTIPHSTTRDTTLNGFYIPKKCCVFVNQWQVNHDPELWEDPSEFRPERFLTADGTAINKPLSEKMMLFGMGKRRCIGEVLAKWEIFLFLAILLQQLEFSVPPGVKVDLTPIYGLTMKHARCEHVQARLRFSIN
Chain of CYP2B6 (P20813 whole entry): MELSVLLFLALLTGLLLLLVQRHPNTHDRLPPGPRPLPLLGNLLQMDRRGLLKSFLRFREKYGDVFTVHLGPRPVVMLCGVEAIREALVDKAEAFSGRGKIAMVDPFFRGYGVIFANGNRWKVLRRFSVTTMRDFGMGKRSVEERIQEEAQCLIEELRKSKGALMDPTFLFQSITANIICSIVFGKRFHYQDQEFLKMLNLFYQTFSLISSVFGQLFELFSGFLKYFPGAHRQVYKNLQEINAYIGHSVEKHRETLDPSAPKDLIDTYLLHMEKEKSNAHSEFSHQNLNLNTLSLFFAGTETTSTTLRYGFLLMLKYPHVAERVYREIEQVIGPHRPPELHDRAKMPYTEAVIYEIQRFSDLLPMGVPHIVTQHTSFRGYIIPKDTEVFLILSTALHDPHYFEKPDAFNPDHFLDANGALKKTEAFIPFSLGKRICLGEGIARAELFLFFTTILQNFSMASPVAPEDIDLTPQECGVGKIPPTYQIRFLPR

COC(=O)[C@H](c1ccccc1Cl)N1CCc2sccc2C1 [clopidogrel]
Share of Phase I metabolism into inactive 2-oxo-clopidogrel [1]: ~36%
Share of Phase I metabolism into inactive 2-oxo-clopidogrel [2]: ~19%
Share of Phase I metabolism into inactive 2-oxo-clopidogrel [3]: ~45%
